Columns and labels:
[1] = Urinary excretion of free and conjugated DDTC; assay type: in vivo, rats; settings: combination of DDTC and acetazolamide, even when NaDDTC dose reduced by 80%
From the text: Intravenous administration was explored in an attempt to deliver larger quantities of free DDTC anion to the likely site of toxicity in the renal tubule; urinary excretion of DDTC was monitored as a means of estimating changes in tubular levels of free DDTC. The standard assay for DDTC anion utilizes a spectrophotometric determination following reaction with cupric ion to form the colored Cu(DDTC)2 complex. Unfortunately, the affinity of cupric ion for sulfur ligands is such that this metal ion will catalyze the decomposition of the DDTC glucuronide and therefore will not discriminate between free and conjugated DDTC. Ferric ion does react selectively with the free ligand, thereby providing a convenient assay for both free and total DDTC in urine.
Excretion of free and conjugated NaDDTC in the urine of rats was measured as follows. NaDDTC was administered in selected doses via intraperitoneal or intravenous injection. Rats were then placed in metabolic cages and urine was collected and analyzed at 30 minute intervals. Urine samples (0.1-5.0 ml) were added to 2 ml of a solution containing ferric nitrate (20 mM) and sodium citrate (200 mM). The dark Fe (DDTC)3 complex was extracted into chloroform (4 ml) by vortexing for 5 minutes. The mixture was chilled, centrifuged for 1 minute, and the chloroform layer separated. To this chloroform solution was added saturated aqueous cupric sulfate (2 ml), and the mixture was vortexed for 5 minutes, chilled, and centrifuged for 1 minute. The chloroform solution was separated and the Cu(DDTC)2absorbance measured at 435 nm. Free DDTC was determined by comparison of absorbance to a standard curve. Total DDTC was determined by addition of 0. 05-1.0 ml of urine to 3 ml of saturated cupric sulfate followed by incubation at 45° for 30 minutes. The resulting Cu(DDTC)2 complex was extracted into chloroform and analyzed as described above. DDTC-glucuronide excretion was determined by subtraction of free from total DDTC.

[2] = cited from earlier work; for Bone marrow toxicity: in vivo
[3] = cited from earlier work; for Benefit when given before platinum(II): given before the platinum (II); for Binding to plasma platinum: in vivo
[4] = polar solvents; cited from earlier work
[5] = Protection of rats against DDP toxicity by disulfiram via stomach tube, Example 1; assay type: in vivo, Male F344 (Fischer) rats; settings: disulfiram 2 g/kg via stomach tube 30 minutes before and 30 minutes after DDP
Method: Male F344 (Fischer) rats (average weight, 150 g) were obtained from the Charles River Breeding Laboratory. They were divided into groups of four rats, placed in methacrylate cages, and given National Institute of Health chow for rodents and water ad lib, for 7 days. Average weight of the rats was 180 g (range, 160-200 g) when injected.
Tetraethylthiuram disulfide (disulfiram) was obtained from Sigma Chemical Co., St. Louis MO. Sodium DDTC was prepared according to the procedure of Klopper and van der Kerk, Rec. Trav. Chim. 70:917 (1951); immediately prior to injection, it was dissolved in sterile water at a concentration of 100 mg/ml. Sodium bicarbonate was prepared in sterile water at a concentration of 50 mg/ml. All injections were carried out under brief ether anesthesia.
Otherwise, weight and BUN were determined at 5 days after injection, reportedly the time of maximal observed toxicity. Evidence of gastrointestinal toxicity was obtained qualitatively by noting the presence or absence of diarrhea 3-5 days after injection.
Disulfiram was administered to two groups of rats in lieu of NaDDTC, as described subsequently.

CC(=O)Nc1nnc(S(N)(=O)=O)s1 [acetazolamide, reference compound]
Renal excretion of DDTC with acetazolamide [1]: significant increases in renal excretion of DDTC

NCC1(CN)CCCCC1.O=S(=O)([O-])[O-].[Pt+2] [TNO-6]
Bone marrow toxicity [2]: increased bone marrow toxicity

CC(C)(S)[C@@H](N)C(=O)O [penicillamine]
Benefit when given before platinum(II) [3]: Some benefit was reported | Binding to plasma platinum [3]: may have the potential to bind to plasma platinum

N.N.O=C([O-])C1(C(=O)[O-])CCC1.[Pt+2] [CBDCA]
Bone marrow toxicity [2]: increased bone marrow toxicity

CCN(CC)C(=S)SSC(=S)N(CC)CC [disulfiram, Tetraethylthiuram disulfide]
Solubility in polar solvents [4]: relatively low solubility, particularly in polar solvents | BUN in survivors [5]: 55 to 180 mg/dL | Necropsy, intestine [5]: grossly hemorrhagic fluid-filled intestine | Weight loss and BUN levels in the survivors [5]: highly variable | Animals that died before day 5 ([5]; in each group): Fifty

N[C@@H](CS)C(=O)O [cysteine]
Benefit when given before platinum(II) [3]: Some benefit was reported | Binding to plasma platinum [3]: may have the potential to bind to plasma platinum

chlorohydroxy-isopropylamineplatinum [CHIP]
Kidney toxicity ([2]; compared to first generation agents): low in kidney toxicity | Bone marrow toxicity [2]: high in bone marrow toxicity

Source: US4594238A (Regents of University of Minnesota, priority 1984, dated 1986)
